The test system of the experiment is Human Blood Platelets. Put plainly: Platelet aggregation assay (Payton duo-channel aggregometer), PAF-16-induced aggregation in platelet-rich plasma. As to conditions: agonist PAF-16 20 ng/ml. The class given is cell-based. As to the method:
Platelet Aggregation Assay
The inhibitory effects of Tβ4 on platelet aggregation were tested using a Payton duo-channel aggregometer. This aggregometer produces a plot of % light transmission (directly proportional to % aggregation) vs. time.
For each experiment, one 9 ml blood sample was drawn from a fasting, non-smoking, healthy subject into a propylene tube containing 1 ml of 3.8% sodium-citrate (anti-coagulant). This blood sample was then diluted with 2 ml of phosphate buffer (phosphate-buffer saline with 11 mM glucose and 3 mM sodium citrate). Dilution with phosphate buffer aids in stabilization of the platelet environment and retention of platelet activity for a longer period of time. Platelet-rich plasma (PRP) was prepared by centrifuging the blood for 3 min at 2300 RPM. After removal of PRP, the volume of the remaining blood was brought up to 10 ml by adding phosphate buffer, and the sample was once again centrifuged for the preparation of platelet-poor (PPP). To obtain PPP, we centrifuged the blood for 10 min at 2800 RPM.
Platelet aggregation tests were performed by recording % light transmission (vs. time) through samples of PRP. Before each assay, the aggregometer was adjusted such that PRP gave no light transmission. For aggregation assays, duplicate samples (0.4 ml) of PRP were incubated with 1 mM CaCl2 (to restore the physiologic concentration of Ca^++) for 1 min at 37° C. Different amounts of Tβ4, ranging for 20 to 300 ng, dissolved in 30 μl of distilled/deionized water, were added to each assay. The mixture was then incubated and stirred for an additional 2 min before aggregation was induced with an agonist.
Among the agonists used in the experiments were ADP, epinephrine, arachidonic acid, thrombin, collagen (Sigma Chemicals), and PAF (Platelet-activating factor)-16 (from Calbiochem). Concentrations of these reagents were 1 μm, 10 μm, 100 μg/ml, 0.2 NIH units, 0.05 mg/ml, and 20 ng/ml respectively. Two control assays were run at the beginning and end of each experiment. An assay without Tβ4 (but with an equivalent volume of H2O) constitutes a control, and the % light transmission produced by each control is assigned a value of % 100 for each experiment. For the measurement of % inhibition caused by Tβ4, light transmission in a Tβ4 assay was compared to the average light transmission in the start and end controls, using the following formula: […]

Regarding “thymosin beta 4 (SDKPDMAEIEKFDKSKLKKTETQEKNPLPSKETIEQEKQAGES; Thymosin beta-4; UniProt P62328 2-44, looked up) [Tβ4]”, the “Average % Inhibition of Aggregation” value stood at 50% (20 ng Tβ4 per assay (0.4 ml PRP)); 90% (40 ng Tβ4 per assay (0.4 ml PRP)); 100% (60 ng Tβ4 per assay (0.4 ml PRP)); 95% (80 ng Tβ4 per assay (0.4 ml PRP)); 92% (100 ng Tβ4 per assay (0.4 ml PRP)); 84% (300 ng Tβ4 per assay (0.4 ml PRP)).

The values above are taken from US8399609B2, “Treating or preventing extracellular matrix build-up” (RegeneRx Biopharmaceuticals, Inc., priority 2004, dated 2013).
